Publication PMC3433420 (PLoS ONE, 2012)
Residues, ends and D or L forms follow the SMILES beside them.

Columns and labels:
Assay in all cases: In-house protein microarrays (with or without 5 mM DTT), protein named per line
Type in all cases: binding
[1] = target: T1, SH2 and PTB domains (Homo sapiens, UniProt P29353); conditions: protein SHC1, array fabrication # 39329
T1 construct: thioredoxin; made in house; host or cells: BL21(DE3)pLysS E. coli
T1 sequence (P29353 1-583): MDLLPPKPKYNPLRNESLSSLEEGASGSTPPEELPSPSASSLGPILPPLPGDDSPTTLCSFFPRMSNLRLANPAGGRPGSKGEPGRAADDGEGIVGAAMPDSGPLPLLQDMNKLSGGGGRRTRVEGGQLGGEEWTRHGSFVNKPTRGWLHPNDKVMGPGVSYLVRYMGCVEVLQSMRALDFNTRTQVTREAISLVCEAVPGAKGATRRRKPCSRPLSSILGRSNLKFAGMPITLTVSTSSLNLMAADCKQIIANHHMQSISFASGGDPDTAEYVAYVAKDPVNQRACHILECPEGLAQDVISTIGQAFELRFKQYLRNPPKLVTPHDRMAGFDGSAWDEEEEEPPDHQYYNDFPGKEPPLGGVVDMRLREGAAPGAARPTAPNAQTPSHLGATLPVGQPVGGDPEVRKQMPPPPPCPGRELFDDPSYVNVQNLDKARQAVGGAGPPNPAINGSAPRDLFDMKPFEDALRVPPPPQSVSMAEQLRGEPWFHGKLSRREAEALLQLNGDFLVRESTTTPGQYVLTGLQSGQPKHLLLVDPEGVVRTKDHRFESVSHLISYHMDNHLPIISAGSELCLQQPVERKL
Summary of the method: (§1)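 Recombinant domains (~40 µM) spotted in duplicate on aldehyde slides, quenched 1 h at room temperature in HEPES/KCl/Tween-20 buffer pH 7.8 with 5 mM DTT and 1% BSA, then probed with rhodamine-labeled peptide. Thioredoxin-subtracted mean fluorescence fitted for KD.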

[2] = target: T2, SH2 and PTB domains (Homo sapiens, UniProt P51813); conditions: protein BMX
T2 construct: thioredoxin; made in house; host or cells: BL21(DE3)pLysS E. coli
T2 sequence (P51813 1-675): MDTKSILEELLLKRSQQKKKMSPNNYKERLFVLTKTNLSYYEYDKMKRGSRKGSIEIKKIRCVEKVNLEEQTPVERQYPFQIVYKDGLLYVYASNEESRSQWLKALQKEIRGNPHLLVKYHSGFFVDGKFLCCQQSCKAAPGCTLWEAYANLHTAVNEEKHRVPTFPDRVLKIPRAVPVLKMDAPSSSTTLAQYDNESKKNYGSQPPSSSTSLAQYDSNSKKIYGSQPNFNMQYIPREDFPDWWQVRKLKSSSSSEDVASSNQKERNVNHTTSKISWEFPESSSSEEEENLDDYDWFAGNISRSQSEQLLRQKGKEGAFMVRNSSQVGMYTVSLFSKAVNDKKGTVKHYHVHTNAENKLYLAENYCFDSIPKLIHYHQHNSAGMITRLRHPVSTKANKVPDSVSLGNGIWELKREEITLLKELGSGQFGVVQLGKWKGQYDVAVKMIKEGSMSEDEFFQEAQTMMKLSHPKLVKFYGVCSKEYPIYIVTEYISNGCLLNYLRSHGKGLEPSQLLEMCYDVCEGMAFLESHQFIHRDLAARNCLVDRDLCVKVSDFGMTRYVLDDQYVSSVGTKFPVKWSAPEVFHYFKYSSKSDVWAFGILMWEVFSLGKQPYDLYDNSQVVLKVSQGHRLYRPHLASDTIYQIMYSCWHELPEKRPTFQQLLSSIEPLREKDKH
Summary of the method: as §1

[3] = target: T3, SH2 and PTB domains (Homo sapiens, UniProt P00519); conditions: protein ABL1
T3 construct: thioredoxin; made in house; host or cells: BL21(DE3)pLysS E. coli
Summary of the method: as §1

[4] = target: T4, SH2 and PTB domains (Homo sapiens, UniProt P42684); conditions: protein ABL2
T4 construct: thioredoxin; made in house; host or cells: BL21(DE3)pLysS E. coli
Summary of the method: as §1

[5] = target: T5, SH2 and PTB domains (Homo sapiens, UniProt P27986)
T5 construct: thioredoxin; made in house; host or cells: BL21(DE3)pLysS E. coli
Summary of the method: as §1

[6] = PM assay replicate # 39307, array fabrication # 39286
[7] = PM assay replicate # 39337, array fabrication # 39329
[8] = PM assay replicate # 39336, array fabrication # 39329

T3 sequence (P00519 whole entry, the tested form may be a part): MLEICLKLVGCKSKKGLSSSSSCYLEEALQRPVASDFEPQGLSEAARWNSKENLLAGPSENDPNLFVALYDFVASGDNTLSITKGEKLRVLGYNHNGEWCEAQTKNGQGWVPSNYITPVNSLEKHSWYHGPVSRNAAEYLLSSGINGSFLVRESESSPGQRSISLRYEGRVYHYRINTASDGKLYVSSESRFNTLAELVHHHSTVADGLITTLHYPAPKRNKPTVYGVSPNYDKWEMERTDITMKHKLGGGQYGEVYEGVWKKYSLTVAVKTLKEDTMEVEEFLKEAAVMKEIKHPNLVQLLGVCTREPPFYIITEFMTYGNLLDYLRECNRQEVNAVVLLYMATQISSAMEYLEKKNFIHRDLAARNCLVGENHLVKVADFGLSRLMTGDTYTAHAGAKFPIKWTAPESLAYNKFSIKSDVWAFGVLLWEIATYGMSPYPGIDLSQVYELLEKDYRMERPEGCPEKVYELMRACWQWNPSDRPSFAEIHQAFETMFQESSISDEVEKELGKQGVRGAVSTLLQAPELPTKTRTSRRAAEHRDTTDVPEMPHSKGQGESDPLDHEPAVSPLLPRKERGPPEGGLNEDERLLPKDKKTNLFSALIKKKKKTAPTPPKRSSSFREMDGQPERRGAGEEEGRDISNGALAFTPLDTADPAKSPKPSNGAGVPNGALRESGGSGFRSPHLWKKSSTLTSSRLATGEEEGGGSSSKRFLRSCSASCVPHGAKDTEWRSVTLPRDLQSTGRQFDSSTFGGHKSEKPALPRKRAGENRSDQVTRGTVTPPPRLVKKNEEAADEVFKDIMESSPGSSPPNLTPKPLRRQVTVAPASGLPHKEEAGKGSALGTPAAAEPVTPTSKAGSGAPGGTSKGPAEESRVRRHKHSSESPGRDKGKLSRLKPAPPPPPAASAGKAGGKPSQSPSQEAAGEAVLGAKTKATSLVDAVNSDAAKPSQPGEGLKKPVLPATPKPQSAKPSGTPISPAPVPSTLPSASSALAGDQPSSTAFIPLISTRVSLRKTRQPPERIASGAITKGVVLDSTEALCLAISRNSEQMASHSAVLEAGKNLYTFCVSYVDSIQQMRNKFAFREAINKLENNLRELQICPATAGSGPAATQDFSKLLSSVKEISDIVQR
T5 sequence (P27986 whole entry, the tested form may be a part): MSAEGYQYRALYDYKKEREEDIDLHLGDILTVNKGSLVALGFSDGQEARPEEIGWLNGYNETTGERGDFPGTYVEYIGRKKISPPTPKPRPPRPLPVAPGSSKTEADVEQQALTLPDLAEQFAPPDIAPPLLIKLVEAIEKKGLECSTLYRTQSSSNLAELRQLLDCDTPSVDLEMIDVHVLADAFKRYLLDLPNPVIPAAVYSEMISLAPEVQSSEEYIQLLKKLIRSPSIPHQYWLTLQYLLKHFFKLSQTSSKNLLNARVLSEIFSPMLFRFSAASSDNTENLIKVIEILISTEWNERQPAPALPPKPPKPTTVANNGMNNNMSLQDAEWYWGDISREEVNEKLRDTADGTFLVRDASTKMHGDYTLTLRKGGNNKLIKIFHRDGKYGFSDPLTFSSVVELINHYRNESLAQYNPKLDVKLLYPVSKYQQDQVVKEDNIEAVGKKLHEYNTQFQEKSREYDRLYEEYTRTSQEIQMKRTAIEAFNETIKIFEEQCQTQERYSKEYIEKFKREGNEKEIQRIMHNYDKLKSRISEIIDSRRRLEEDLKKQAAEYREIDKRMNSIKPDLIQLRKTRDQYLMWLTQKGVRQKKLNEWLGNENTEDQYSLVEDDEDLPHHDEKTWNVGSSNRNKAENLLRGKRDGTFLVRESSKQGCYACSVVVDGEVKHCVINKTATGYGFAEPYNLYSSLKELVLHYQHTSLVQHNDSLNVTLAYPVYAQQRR
T4 sequence (P42684 whole entry, the tested form may be a part): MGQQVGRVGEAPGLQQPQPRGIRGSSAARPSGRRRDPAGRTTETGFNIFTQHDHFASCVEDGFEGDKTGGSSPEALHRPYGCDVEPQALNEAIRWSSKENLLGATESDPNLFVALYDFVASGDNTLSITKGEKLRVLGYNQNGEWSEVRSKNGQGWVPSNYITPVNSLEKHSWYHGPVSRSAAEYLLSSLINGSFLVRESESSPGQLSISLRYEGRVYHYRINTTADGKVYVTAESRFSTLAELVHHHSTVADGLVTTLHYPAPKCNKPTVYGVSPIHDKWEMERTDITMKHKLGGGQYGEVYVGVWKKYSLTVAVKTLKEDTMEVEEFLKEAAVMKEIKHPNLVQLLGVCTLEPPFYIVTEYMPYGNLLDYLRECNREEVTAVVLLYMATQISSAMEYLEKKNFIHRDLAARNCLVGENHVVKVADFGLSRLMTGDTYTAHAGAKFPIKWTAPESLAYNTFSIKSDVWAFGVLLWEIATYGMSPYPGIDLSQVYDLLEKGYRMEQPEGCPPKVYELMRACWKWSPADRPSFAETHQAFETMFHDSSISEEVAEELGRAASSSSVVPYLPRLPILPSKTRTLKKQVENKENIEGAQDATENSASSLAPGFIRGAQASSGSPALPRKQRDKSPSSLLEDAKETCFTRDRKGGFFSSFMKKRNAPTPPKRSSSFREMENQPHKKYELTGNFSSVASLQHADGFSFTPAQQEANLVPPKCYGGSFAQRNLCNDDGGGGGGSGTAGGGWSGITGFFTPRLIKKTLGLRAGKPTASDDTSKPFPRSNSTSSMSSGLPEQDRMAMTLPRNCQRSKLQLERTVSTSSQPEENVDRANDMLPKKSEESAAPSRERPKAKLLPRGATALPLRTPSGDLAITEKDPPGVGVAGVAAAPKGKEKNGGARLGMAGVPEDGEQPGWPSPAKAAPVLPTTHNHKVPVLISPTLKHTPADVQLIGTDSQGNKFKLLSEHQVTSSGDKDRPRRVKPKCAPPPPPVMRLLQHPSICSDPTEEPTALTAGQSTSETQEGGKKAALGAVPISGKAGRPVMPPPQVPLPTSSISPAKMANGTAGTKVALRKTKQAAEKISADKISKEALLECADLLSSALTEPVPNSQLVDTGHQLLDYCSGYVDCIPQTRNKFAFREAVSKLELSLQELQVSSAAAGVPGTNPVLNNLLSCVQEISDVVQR

SMILES: CC(C)C[C@H](NC(=O)[C@@H]1CCCN1)C(=O)N[C@@H](CCC(N)=O)C(=O)N[C@@H](CCCNC(=N)N)C(=O)N[C@@H](Cc1ccc(OP(=O)(O)O)cc1)C(=O)N[C@@H](CO)C(=O)N[C@@H](CCC(=O)O)C(=O)N[C@@H](CC(=O)O)C(=O)N1CCC[C@H]1C(=O)N[C@H](C(=O)N[C@H](C(=O)N1CCC[C@H]1C(=O)N[C@@H](CC(=O)O)C(=O)O)C(C)C)[C@@H](C)O [ErbB2 pY1112] (HELM PEPTIDE1{P.L.Q.R.[O=C([C@H](Cc1ccc(OP(=O)(O)O)cc1)N[*:1])[*:2]].S.E.D.P.T.V.P.D}$$$$V2.0)
- Kd ([1]; PM assay replicate # 39331): 1260 nM
- Kd ([1]; PM assay replicate # 39336): 3060 nM

SMILES: CC[C@H](C)[C@H](NC(=O)[C@H](CC(N)=O)NC(=O)[C@H](CC(N)=O)NC(=O)[C@H](CCCCN)NC(=O)[C@H](CC(C)C)NC(=O)[C@H](Cc1ccc(OP(=O)(O)O)cc1)NC(=O)[C@H](CCC(=O)O)NC(=O)[C@H](C)NC(=O)[C@H](CCCCN)NC(=O)CNC(=O)[C@H](CC(C)C)NC(=O)[C@@H](NC(=O)[C@H](CC(N)=O)NC(=O)[C@H](C)NC(=O)[C@@H](N)Cc1ccccc1)[C@@H](C)O)C(=O)N[C@@H](CC(C)C)C(=O)N[C@@H](CO)C(=O)N[C@@H](CC(=O)O)C(=O)O [ErbB4 pY1221 (18-mer)] (HELM PEPTIDE1{F.A.N.T.L.G.K.A.E.[O=C([C@H](Cc1ccc(OP(=O)(O)O)cc1)N[*:1])[*:2]].L.K.N.N.I.L.S.D}$$$$V2.0)
- Kd [2, 6]: 420 nM
- Kd [3, 6]: 250 nM
- Kd [4, 6]: 280 nM
- Kd ([4]; PM assay replicate # 39352, array fabrication # 39336): 910 nM

SMILES: CCN(CC)c1ccc2c(-c3ccc(C(=O)N[C@@H](CC(N)=O)C(=O)NCC(=O)N4CCC[C@H]4C(=O)N4CCC[C@H]4C(=O)N[C@@H](CCCCN)C(=O)N[C@@H](C)C(=O)N[C@@H](CCC(=O)O)C(=O)N[C@@H](CC(=O)O)C(=O)N[C@@H](CCC(=O)O)C(=O)N[C@@H](Cc4ccc(OP(=O)(O)O)cc4)C(=O)N[C@H](C(=O)N[C@@H](CC(N)=O)C(=O)N[C@@H](CCC(=O)O)C(=O)N4CCC[C@H]4C(=O)N[C@@H](CC(C)C)C(=O)N[C@@H](Cc4ccc(O)cc4)C(=O)N[C@@H](CC(C)C)C(=O)N[C@@H](CC(=O)O)C(=O)O)C(C)C)cc3C(=O)[O-])c3ccc(=[N+](CC)CC)cc-3oc2c1 [ErbB4 1202 (18-mer)] (HELM PEPTIDE1{[CCN(CC)c1ccc2c(-c3ccc(C(=O)[*:2])cc3C(=O)[O-])c3ccc(=[N+](CC)CC)cc-3oc2c1].N.G.P.P.K.A.E.D.E.[O=C([C@H](Cc1ccc(OP(=O)(O)O)cc1)N[*:1])[*:2]].V.N.E.P.L.Y.L.D}$$$$V2.0)
- Kd ([5]; protein PIK3R1-NC, PM assay replicate # 39307, array fabrication # 39286): 170 nM
- Kd ([5]; protein PIK3R1-NC, PM assay replicate # 39337, array fabrication # 39329): 540 nM
- Kd [4, 6]: 1000 nM
- Kd [4, 7]: 970 nM

SMILES: CC(C)C[C@H](NC(=O)[C@@H]1CCCN1C(=O)[C@H](C)NC(=O)[C@@H](NC(=O)[C@H](Cc1ccc(OP(=O)(O)O)cc1)NC(=O)CNC(=O)[C@H](CC(=O)O)NC(=O)[C@@H](NC(=O)[C@@H](N)CCC(=O)O)[C@@H](C)O)C(C)C)C(=O)N[C@H](C(=O)N[C@@H](CS)C(=O)N[C@@H](CO)C(=O)N[C@@H](CC(=O)O)C(=O)O)[C@@H](C)O [ErbB2 pY1127]
- Kd ([1]; PM assay replicate # 39336): 980 nM
- Kd ([1]; PM assay replicate # 39337): 820 nM
- Kd ([5]; protein PIK3R1-N, PM assay replicate # 39336, array fabrication # 39329): 19 nM
- Kd ([5]; protein PIK3R1-N, PM assay replicate # 39337, array fabrication # 39329): 220 nM
- Kd [2, 8]: 1600 nM
- Kd [2, 7]: 5390 nM
- Kd [3, 8]: 300 nM
- Kd [3, 7]: 530 nM
